Results on five compounds are retold here after patent US5654290A, “Polyunsaturated fatty acid based drugs” (Institut National de la Sante et de la Recherche Medicale, priority 1992, dated 1997).

Where “and” joins values, the source holds several entries; their conditions need not be identical. Identical values can stand only once. Like-named read-outs stand apart in the source and are kept apart here.

The target of series [1] is T1, TXA2 /PGH2 receptor of the platelet membranes (Homo sapiens, UniProt P21731).
T1 construct: TXA2 /PGH2 receptor, to platelet membranes whose PC's or PE's are enriched either in 18:2n-6 or in DHA; from tissue; host or cells: platelet membranes (phospholipids exchanged with maize or endogenous platelet transfer protein)
T1 sequence (P21731 1-343): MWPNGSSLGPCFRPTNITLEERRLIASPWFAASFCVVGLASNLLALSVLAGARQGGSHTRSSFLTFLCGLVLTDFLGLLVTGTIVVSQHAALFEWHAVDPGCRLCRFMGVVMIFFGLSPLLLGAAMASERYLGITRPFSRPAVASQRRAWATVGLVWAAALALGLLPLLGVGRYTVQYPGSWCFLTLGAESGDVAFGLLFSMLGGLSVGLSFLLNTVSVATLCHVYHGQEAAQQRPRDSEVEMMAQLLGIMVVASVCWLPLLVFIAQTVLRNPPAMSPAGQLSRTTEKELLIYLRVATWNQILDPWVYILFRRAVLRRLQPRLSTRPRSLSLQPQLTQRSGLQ
Put plainly: Specific binding of tritiated SQ29,548 to the TXA2/PGH2 receptor of platelet membranes whose PC's or PE's are enriched in 18:2n-6 or DHA. The settings on record: for effect on the TXA2 /PGH2 receptor (dissociation constant of SQ29.548): platelet membranes enriched, in words. Here is the method: The diacyl-glycerophosphocholines of the platelet membranes were replaced either with 1-palmitoyl-2-docosa-hexaenoyl-glycerophosphocholine (bars with vertical stripes, "22:6n-3"), or with 1-palmitoyl-2-linoloyl-glycerophosphocholine (bars with horizontal stripes, "18:2n-6"), using the endogenous transfer protein of the platelets which is specific for the phosphatidylinositols and phosphatidylcholines. The control platelet membranes (black bars, "control") are obtained by incubation without addition of phospholipids. The data for the graph represent the mean±S.D. of three independent tests.
The diacyl-glycerophosphoethanolamines of the platelet membranes were replaced either with 1-palmitoyl-2-docosahexaenoyl-glycerophosphoethanolamine (bars with vertical stripes, "22:6n-3"), or with 1-palmitoyl-2-linoloyl-glycerophosphoethanolamine (bars with horizontal stripes "18:2n-6"), using the lipid transfer protein purified from maize. The control platelet membranes (black bars, "control") are obtained by incubation without addition of phospholipids. The data for the graph represent the mean±S.D. of three independent tests.
Preparations of esterified DHA into various classes of phospholipids were carried out using phospholipid transfer proteins in order to enrich, in a specific manner, the phosphatidylcholines (PC) and the phosphatidylethanolamines (PE) of the platelet membranes in linoleic acid (18:2n-6) and in DHA (49). In particular, the transfer protein (PT), which is specific for the PC's and purified from bovine liver, was used to modify the composition of molecular species of the PC's of erythrocytes (49).
In the procedure used in the present example, the endogenous quantity of platelet phospholipids is not altered by the transfer carried out by means of the maize or platelet PT; nevertheless, the phospholipids were enriched in 18:2n-6 or in DHA.
The influence of the fatty acids on the TXA2 /PGH2 receptor was established by measuring the specific binding of tritiated SQ29,548, a competitive antagonist of the TXA2 /PGH2 receptor, to platelet membranes whose PC's or PE's are enriched either in 18:2n-6 or in DHA.

Series [2] deals with brain. Put plainly: Distribution of the radioactivity between the lipid classes of the brain after intravenous injection of lyso-PCDHA or non-esterified DHA. The format is in vivo, rat. The settings on record: injection of non-esterified DHA. From the text: (§1) The animal studied is a 20-day-old rat in which the cerebral lipid metabolism is at its peak.
(§2) The lyso-PC's are labelled on the fatty acid and the choline, attached to albumin and administered intravenously (50). […] It therefore appears that the lyso-PCDHA's attached to albumin constitute a particularly preferred form of supply of DHA to the developing brain.

Series [3] deals with kidney. Put plainly: Capture by the kidney, in rats, of lyso-PCDHA and non-esterified DHA. In kind it is in vivo. The settings on record: 20-day-old rat, intravenous; lyso-PCDHA vs non-esterified DHA.
Source text: FIG. 3 represents the variation of the radio-activity recovered in the total lipids: A from the brain, B from the kidney, C from the heart and D from the liver, after injecting tritiated DHA in free form (black circle) or in the form of 2-DHA-1-lyso-PC (black triangle).
as §1, §2

The mark [4] stands for this setting: individual test, platelet membranes, PC's enriched.
The mark [5] stands for this setting: mean of three tests, PC's enriched.
[6] abbreviates: individual test, platelet membranes, PE's enriched.
Where [7] appears, read: individual test, platelet membranes, PE's enriched, read-out: Kd of SQ 29.548.
Where [8] appears, read: mean of three tests, PE's enriched.
Where [9] appears, read: mean of three tests, PE's enriched, read-out: Kd of SQ 29.548.

For `CCCCC/C=C\C/C=C\CCCCCCCC(=O)OC(COC(=O)CCCCCCCCCCCCCCC)COP(=O)([O-])OCC[N+](C)(C)C` (stereo not shown) [PC 18:2n-6, 1-palmitoyl-2-linoloyl-glycerophosphocholine], the Kd in series [1] (Kd of SQ 29.548, individual test, platelet membranes, PC's enriched) was 4.64 nM and 3.16 nM and 4.05 nM; in series [1] (Kd of SQ 29.548, mean of three tests, PC's enriched, (a) p < 0.05 compared with the control and with PC 18:2n6 for PC 22:6n-3), 3.95 ± 0.75 nM. In addition, the “Bmax of SQ 29.548” value in series [1] (setting [4]) was 1.83 pmol/mg prot. and 1.91 pmol/mg prot. and 2.41 pmol/mg prot; in series [1] (setting [5]), 2.05 ± 0.31 pmol/mg prot. Further, the “Hill Coefficient” value is 1.00 and 0.94 and 0.90 in series [1] (setting [4]); 0.95 ± 0.05 in series [1] (setting [5]). Also, in series [1], the “effect on the TXA2 /PGH2 receptor (dissociation constant of SQ29.548)” value (“effect on the TXA2 /PGH2 receptor” below) is listed as “no effect on the receptor”.
`CC/C=C\C/C=C\C/C=C\C/C=C\C/C=C\C/C=C\CCC(=O)O` [non-esterified DHA, docosahexaenoic acid, reference compound]: the “radioactivity in LN + AG of the brain” value in series [2] (2.5 min) is given as 36.7 % of the radioactivity of the total lipids; in series [2] (5 min), 19.0 % of the radioactivity of the total lipids; in series [2] (7.5 min) it was 30.0 % of the radioactivity of the total lipids; in series [2] (8 min) it was 31.6 % of the radioactivity of the total lipids; in series [2] (15 min) it was 20.8 % of the radioactivity of the total lipids; in series [2] (30 min), 20.4 % of the radioactivity of the total lipids. Besides, the “radioactivity in LN + AG of the brain” value in series [2] (60 min) was 12.5 % of the radioactivity of the total lipids. In addition, the “radioactivity in PC of the brain” value is on record as 18.8 % of the radioactivity of the total lipids in series [2] (2.5 min); 23.2 % of the radioactivity of the total lipids in series [2] (5 min); 21.1 % of the radioactivity of the total lipids in series [2] (7.5 min); 19.6 % of the radioactivity of the total lipids in series [2] (8 min); 25.7 % of the radioactivity of the total lipids in series [2] (15 min); 24.8 % of the radioactivity of the total lipids in series [2] (30 min). Also, the “radioactivity in PC of the brain” value in series [2] (60 min) was 24.3 % of the radioactivity of the total lipids. The “radioactivity in PE of the brain” value is given as 37.5 % of the radioactivity of the total lipids in series [2] (2.5 min); 48.1 % of the radioactivity of the total lipids in series [2] (5 min); 44.4 % of the radioactivity of the total lipids in series [2] (7.5 min); 40.7 % of the radioactivity of the total lipids in series [2] (8 min); 49.1 % of the radioactivity of the total lipids in series [2] (15 min); 48.4 % of the radioactivity of the total lipids in series [2] (30 min). For the same compound, the “radioactivity in PE of the brain” value in series [2] (60 min) was 54.1 % of the radioactivity of the total lipids. Besides, the “radioactivity in PI of the brain” value in series [2] (2.5 min) is on record as 2.7 % of the radioactivity of the total lipids; in series [2] (5 min), 5.1 % of the radioactivity of the total lipids; in series [2] (7.5 min) it was 2.6 % of the radioactivity of the total lipids; in series [2] (8 min), 3.8 % of the radioactivity of the total lipids; in series [2] (15 min) it was 3 % of the radioactivity of the total lipids; in series [2] (30 min), 3.4 % of the radioactivity of the total lipids. For the same compound, the “radioactivity in PI of the brain” value in series [2] (60 min) is on record as 2.8 % of the radioactivity of the total lipids. Besides, the “radioactivity in PS of the brain” value in series [2] (2.5 min) is listed as 4.0 % of the radioactivity of the total lipids; in series [2] (5 min), 4.6 % of the radioactivity of the total lipids; in series [2] (7.5 min) it was 1.8 % of the radioactivity of the total lipids; in series [2] (8 min), 4.3 % of the radioactivity of the total lipids; in series [2] (15 min) it was 2.9 % of the radioactivity of the total lipids; in series [2] (30 min), 2.9 % of the radioactivity of the total lipids. The “radioactivity in PS of the brain” value in series [2] (60 min) was 6.3 % of the radioactivity of the total lipids. Further, in series [3], the “capture by the kidney” value is “captures the two forms of supply in essentially the same manner”.
Turning to `CC/C=C\C/C=C\C/C=C\C/C=C\C/C=C\C/C=C\CCC(=O)OC(COC(=O)CCCCCCCCCCCCCCC)COP(=O)([O-])OCC[N+](C)(C)C` (stereo not shown) [PC 22:6n-3, 1-palmitoyl-2-docosahexaenoyl-glycerophosphocholine], the “Bmax of SQ 29.548” value in series [1] (setting [4]) was 2.94 pmol/mg prot. and 2.09 pmol/mg prot. and 2.40 pmol/mg prot; in series [1] (setting [5]), 2.48 ± 0.43 pmol/mg prot. Moreover, the “Hill Coefficient” value is 0.91 and 1.00 and 0.94 in series [1] (setting [4]); 0.95 ± 0.05 in series [1] (setting [5]). Moreover, the Kd was 5.69 nM and 8.56 nM and 7.05 nM in series [1] (individual test, platelet membranes, PC's enriched, read-out: Kd of SQ 29.548); 7.1 ± 1.44 nM in series [1] (mean of three tests, PC's enriched, (a) p < 0.05 compared with the control and with PC 18:2n6 for PC 22:6n-3, read-out: Kd of SQ 29.548). For the same compound, the “effect on the TXA2 /PGH2 receptor” value in series [1] was “significantly increasing the dissociation constant of SQ29.548”.
As to `CC/C=C\C/C=C\C/C=C\C/C=C\C/C=C\C/C=C\CCC(=O)OC(COC(=O)CCCCCCCCCCCCCCC)COP(=O)(O)OCCN` (stereo not shown) [PE 22:6n-3, 1-palmitoyl-2-docosahexaenoyl-glycerophosphoethanolamine], the “Bmax of SQ 29.548” value is 1.67 pmol/mg prot. and 1.99 pmol/mg prot. and 1.91 pmol/mg prot in series [1] (setting [6]); 1.86 ± 0.17 pmol/mg prot in series [1] (setting [8]). Also, the “Hill Coefficient” value is 0.95 and 1.02 in series [1] (setting [6]); 1.00 ± 0.04 in series [1] (setting [8]). The Kd in series [1] (setting [7]) was 2.92 nM and 4.61 nM and 4.63 nM; in series [1] (setting [9]) it was 4.05 ± 0.98 nM. Besides, the “effect on the TXA2 /PGH2 receptor” value in series [1] was “no effect on the receptor”.
Take `CCCCC/C=C\C/C=C\CCCCCCCC(=O)OC(COC(=O)CCCCCCCCCCCCCCC)COP(=O)(O)OCCN` (stereo not shown) [PE 18:2n-6, 1-palmitoyl-2-linoloyl-glycerophosphoethanolamine]: the “Bmax of SQ 29.548” value in series [1] (setting [6]) is 1.89 pmol/mg prot. and 2.26 pmol/mg prot. and 2.07 pmol/mg prot; in series [1] (setting [8]), 2.07 ± 0.19 pmol/mg prot. In addition, the “Hill Coefficient” value in series [1] (setting [6]) was 0.94 and 1.00 and 1.05; in series [1] (setting [8]), 1.00 ± 0.06. In addition, the Kd was 3.11 nM and 4.31 nM and 4.92 nM in series [1] (setting [7]); 4.11 ± 0.92 nM in series [1] (setting [9]). Further, in series [1], the “effect on the TXA2 /PGH2 receptor” value is recorded as “no effect on the receptor”.

The Kd is the constant that tells how readily two partners part at equilibrium.
